Laboratory results: patent publication US5202315A, “Cephalosporin compounds” (Lucky, Ltd., priority 1989, dated 1993)
Converted amounts (≈) assume the structure as drawn. Read-outs that look alike come from different tables or passages of the source.

How the values were obtained:
[1] = tested on: Staphylococcus aureus methicillin susceptible; test: Antibacterial activity against clinically isolated strains, MIC; assay type: cell-based
[2] = tested on: Staphylococcus aureus methicillin resistant; test: as above; assay type: cell-based
Escherichia coli = test: as above; assay type: cell-based
Pseudomonas aeruginosa = test: as above; assay type: cell-based
[3] = In-vivo absorbency (plasma concentrations & pharmacokinetic parameters); parameters: species or system SD rat (male); conditions: rat, in vivo, iv, 20 mg/kg
Text: The blood samples from the femoral vein of the rats were taken every hour after administration, and analyzed by bio-assay(agar well method).
Tested animal: SD male Rat (220~340 g)

[4] = tested on: Morganella morganii ATCC 8076h; test: Antibacterial activity, MIC; assay type: cell-based; conditions: ATCC8076H, agar two-fold dilution, 37° C., 20 hours
Procedure, shortened: (§1)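 Values reflect agar dilution testing: Mueller-Hinton medium, two-fold compound series, 2 μl inoculum of 10^7 CFU/ml, 20 h incubation at 37 °C.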

[5] = tested on: Staphylococcus epidermidis ATCC 12228; test: Antibacterial activity, MIC; assay type: cell-based
Procedure, shortened: as §1

[6] = tested on: Proteus mirabilis ATCC 25933; test: Antibacterial activity, MIC; assay type: cell-based
Procedure, shortened: as §1

[7] = tested on: Pseudomonas aeruginosa ATCC 10145; test: Antibacterial activity, MIC; assay type: cell-based
Procedure, shortened: as §1

[8] = tested on: Enterobacter aerogenes ATCC 29751; test: Antibacterial activity, MIC; assay type: cell-based; conditions: Klebsiella aerogenes
Procedure, shortened: as §1

[9] = tested on: Shigella flexneri ATCC 11836; test: Antibacterial activity, MIC; assay type: cell-based; conditions: ATCC11836, agar two-fold dilution, 37° C., 20 hours
Procedure, shortened: as §1

[10] = tested on: Staphylococcus aureus ATCC 6538p; test: Antibacterial activity, MIC; assay type: cell-based; conditions: ATCC6538P
Procedure, shortened: as §1

[11] = tested on: Pseudomonas aeruginosa ATCC 27853; test: Antibacterial activity, MIC; assay type: cell-based
Procedure, shortened: as §1

[12] = tested on: Acinetobacter calcoaceticus ATCC 15473; test: Antibacterial activity, MIC; assay type: cell-based
Procedure, shortened: as §1

[13] = tested on: Streptococcus faecalis ATCC 29212; test: Antibacterial activity, MIC; assay type: cell-based; conditions: Enterococcus faecalis
Procedure, shortened: as §1

[14] = tested on: Serratia marcescens ATCC 27117; test: Antibacterial activity, MIC; assay type: cell-based
Procedure, shortened: as §1

[15] = tested on: Shigella sonnei ATCC 11060; test: Antibacterial activity, MIC; assay type: cell-based; conditions: ATCC11060, ATCC 11060, agar two-fold dilution, 37° C., 20 hours, read-out: MIC
Procedure, shortened: as §1

[16] = tested on: Escherichia coli ATCC 10536; test: Antibacterial activity, MIC; assay type: cell-based; conditions: ATCC10536, agar two-fold dilution, 37° C., 20 hours
Procedure, shortened: as §1

[17] = tested on: Escherichia coli ATCC 25922; test: Antibacterial activity, MIC; assay type: cell-based; conditions: ATCC25922, agar two-fold dilution, 37° C., 20 hours
Procedure, shortened: as §1

[18] = tested on: Klebsiella pneumoniae ATCC 10031; test: Antibacterial activity, MIC; assay type: cell-based
Procedure, shortened: as §1

[19] = tested on: Staphylococcus aureus ATCC 10537; test: Antibacterial activity, MIC; assay type: cell-based
Procedure, shortened: as §1

[20] = tested on: Proteus vulgaris ATCC 6059; test: Antibacterial activity, MIC; assay type: cell-based
Procedure, shortened: as §1

[21] = tested on: Providencia rettgeri ATCC 9250; test: Antibacterial activity, MIC; assay type: cell-based; conditions: ATCC9250, agar two-fold dilution, 37° C., 20 hours
Procedure, shortened: as §1

[22] = tested on: Salmonella typhimurium ATCC 14028; test: Antibacterial activity, MIC; assay type: cell-based; conditions: Salmonella enterica
Procedure, shortened: as §1

[23] = tested on: Enterobacter cloacae ATCC 27508; test: Antibacterial activity, MIC; assay type: cell-based
Procedure, shortened: as §1

[24] = tested on: Pseudomonas aeruginosa ATCC 25619; test: Antibacterial activity, MIC; assay type: cell-based
Procedure, shortened: as §1

[25] = tested on: Micrococcus luteus ATCC 9341; test: Antibacterial activity, MIC; assay type: cell-based
Procedure, shortened: as §1

[26] = tested on: Bacillus cereus ATCC 11778; test: Antibacterial activity, MIC; assay type: cell-based
Procedure, shortened: as §1

[27] = tested on: Bacillus megaterium ATCC 9885; test: Antibacterial activity, MIC; assay type: cell-based; conditions: Priestia megaterium
Procedure, shortened: as §1

[28] = tested on: Citrobacter freundii ATCC 8090; test: Antibacterial activity, MIC; assay type: cell-based
Procedure, shortened: as §1

[29] = In-vivo absorbency (plasma concentrations & pharmacokinetic parameters); parameters: species or system SD rat (male); conditions: rat, in vivo, iv, 20 mg/kg; remark: listed apart in the source
Klebsiella pneumoniae = test: Antibacterial activity against clinically isolated strains, MIC; assay type: cell-based
[30] = 38 clinical isolates, broth microdilution test

Compound: CC(C)(O/N=C(\C(=O)N[C@@H]1C(=O)N2C(C(=O)[O-])=C(C[n+]3ccccc3)CS[C@H]12)c1csc(N)n1)C(=O)O [Ceftazidime, reference compound]
- MIC50 [1]: 8 µg/mL (≈ 14.6 µM)
- MIC90 [1]: 8 µg/mL (≈ 14.6 µM)
- MIC50 [2]: 128 µg/mL (≈ 234 µM)
- MIC90 [2]: > 128 µg/mL
- MIC50 (Escherichia coli): 0.13 µg/mL (≈ 0.238 µM)
- MIC90 (Escherichia coli; [30]): 0.13 µg/mL (≈ 0.238 µM)
- MIC50 (Pseudomonas aeruginosa): 4 µg/mL (≈ 7.32 µM)
- MIC90 (Pseudomonas aeruginosa): 16 µg/mL (≈ 29.3 µM)
- concentration at 1 h [3]: 4700 ng/mL
- concentration at 2 h [3]: 1600 ng/mL
- MIC [4]: 0.016 µg/mL (≈ 0.0293 µM)
- MIC ([5]; ATCC12228, 20 h): 8 µg/mL (≈ 14.6 µM)
- MIC ([6]; ATCC25933, 20 h): 0.063 µg/mL (≈ 0.115 µM)
- MIC ([7]; ATCC10145, 20 h): 2 µg/mL (≈ 3.66 µM)
- MIC ([8]; ATCC29751, 20 h): 8 µg/mL (≈ 14.6 µM)
- MIC [9]: 0.063 µg/mL (≈ 0.115 µM)
- MIC ([10]; 20 h): 16 µg/mL (≈ 29.3 µM)
- MIC ([11]; ATCC27853, 20 h): 1 µg/mL (≈ 1.83 µM)
- MIC ([12]; ATCC15473, 20 h): 4 µg/mL (≈ 7.32 µM)
- MIC ([13]; ATCC29212, 20 h): > 128 µg/mL
- MIC ([14]; ATCC27117, 20 h): 0.13 µg/mL (≈ 0.238 µM)
- MIC [15]: 0.13 µg/mL (≈ 0.238 µM)
- MIC [16]: 0.13 µg/mL (≈ 0.238 µM)
- MIC [17]: 0.13 µg/mL (≈ 0.238 µM)
- MIC ([18]; ATCC10031, 20 h): 0.13 µg/mL (≈ 0.238 µM)
- MIC ([19]; ATCC10537, 20 h): 8 µg/mL (≈ 14.6 µM)
- MIC ([20]; ATCC6059, 20 h): 0.063 µg/mL (≈ 0.115 µM)
- MIC [21]: ≤ 0.008 µg/mL
- MIC ([22]; 20 h): 0.25 µg/mL (≈ 0.457 µM)
- MIC ([23]; ATCC27508, 20 h): 0.063 µg/mL (≈ 0.115 µM)
- MIC ([24]; ATCC25619, 20 h): 1 µg/mL (≈ 1.83 µM)
- MIC ([25]; ATCC9341, 20 h): 1 µg/mL (≈ 1.83 µM)
- MIC ([26]; ATCC11778, 20 h): 128 µg/mL (≈ 234 µM)
- MIC ([27]; ATCC9885, 20 h): 0.25 µg/mL (≈ 0.457 µM)
- MIC ([28]; ATCC8090, 20 h): 0.25 µg/mL (≈ 0.457 µM)
- AUC [29]: 31100 ng·h/mL
- concentration at 1 min [29]: 135000 ng/mL
- concentration at 2.5 min [29]: 94000 ng/mL
- concentration at 5 min [29]: 71000 ng/mL
- concentration at 10 min [29]: 53000 ng/mL
- concentration at 20 min [29]: 26000 ng/mL
- concentration at 40 min [29]: 10000 ng/mL
- MIC50 (Klebsiella pneumoniae): 0.063 µg/mL (≈ 0.115 µM)
- MIC90 (Klebsiella pneumoniae): 0.5 µg/mL (≈ 0.915 µM)

Compound: CCO/N=C(\C(=O)NC1C(=O)N2C(C(=O)[O-])=C(CSc3nc(N)cc(N)[n+]3C)CSC12)c1nsc(N)n1 (stereo not shown) [Compound I-20]
- MIC90 [1]: 0.5 µg/mL (≈ 0.882 µM)
- MIC50 ([1]; methicillin susceptible, 42 clinical isolates, broth microdilution test): 0.5 µg/mL (≈ 0.882 µM)
- MIC50 ([2]; methicillin resistant, 7 clinical isolates, broth microdilution test): 16 µg/mL (≈ 28.2 µM)
- MIC90 ([2]; methicillin resistant, 7 clinical isolates, broth microdilution test, read-out: MIC 90%): 32 µg/mL (≈ 56.5 µM)
- MIC50 (Escherichia coli; [30]): 0.063 µg/mL (≈ 0.111 µM)
- MIC90 (Escherichia coli; [30]): 0.25 µg/mL (≈ 0.441 µM)
- MIC90 (Pseudomonas aeruginosa): 16 µg/mL (≈ 28.2 µM)
- MIC50 (Pseudomonas aeruginosa; 54 clinical isolates, broth microdilution test): 4 µg/mL (≈ 7.06 µM)
- MIC [4]: 0.016 µg/mL (≈ 0.0282 µM)
- MIC ([5]; ATCC12228, ATCC 12228, agar two-fold dilution, 37° C., 20 hours, read-out: MIC): 0.25 µg/mL (≈ 0.441 µM)
- MIC ([6]; ATCC25933, ATCC 25933, agar two-fold dilution, 37° C., 20 hours, read-out: MIC): 0.5 µg/mL (≈ 0.882 µM)
- MIC ([7]; ATCC10145, ATCC 10145, agar two-fold dilution, 37° C., 20 hours, read-out: MIC): 4 µg/mL (≈ 7.06 µM)
- MIC ([8]; ATCC29751, ATCC 29751, agar two-fold dilution, 37° C., 20 hours, read-out: MIC): 0.25 µg/mL (≈ 0.441 µM)
- MIC [9]: 0.031 µg/mL (≈ 0.0547 µM)
- MIC ([10]; ATCC 6538p, agar two-fold dilution, 37° C., 20 hours, read-out: MIC): 0.5 µg/mL (≈ 0.882 µM)
- MIC ([11]; ATCC27853, ATCC 27853, agar two-fold dilution, 37° C., 20 hours, read-out: MIC): 2 µg/mL (≈ 3.53 µM)
- MIC ([12]; ATCC15473, ATCC 15473, agar two-fold dilution, 37° C., 20 hours, read-out: MIC): 2 µg/mL (≈ 3.53 µM)
- MIC ([13]; ATCC29212, ATCC 29212, agar two-fold dilution, 37° C., 20 hours, read-out: MIC): 32 µg/mL (≈ 56.5 µM)
- MIC ([14]; ATCC27117, ATCC 27117, agar two-fold dilution, 37° C., 20 hours, read-out: MIC): 0.25 µg/mL (≈ 0.441 µM)
- MIC [15]: 0.13 µg/mL (≈ 0.229 µM)
- MIC [16]: 0.13 µg/mL (≈ 0.229 µM)
- MIC [17]: 0.13 µg/mL (≈ 0.229 µM)
- MIC ([18]; ATCC10031, ATCC 10031, agar two-fold dilution, 37° C., 20 hours, read-out: MIC): 0.016 µg/mL (≈ 0.0282 µM)
- MIC ([19]; ATCC10537, ATCC 10537, agar two-fold dilution, 37° C., 20 hours, read-out: MIC): 0.25 µg/mL (≈ 0.441 µM)
- MIC ([20]; ATCC6059, ATCC 6059, agar two-fold dilution, 37° C., 20 hours, read-out: MIC): 1 µg/mL (≈ 1.76 µM)
- MIC [21]: ≤ 0.008 µg/mL
- MIC ([22]; ATCC 14028, agar two-fold dilution, 37° C., 20 hours, read-out: MIC): 0.5 µg/mL (≈ 0.882 µM)
- MIC ([23]; ATCC27508, ATCC 27508, agar two-fold dilution, 37° C., 20 hours, read-out: MIC): 0.016 µg/mL (≈ 0.0282 µM)
- MIC ([24]; ATCC25619, ATCC 25619, agar two-fold dilution, 37° C., 20 hours, read-out: MIC): 1 µg/mL (≈ 1.76 µM)
- MIC ([25]; ATCC9341, ATCC 9341, agar two-fold dilution, 37° C., 20 hours, read-out: MIC): 0.031 µg/mL (≈ 0.0547 µM)
- MIC ([26]; ATCC11778, ATCC 11778, agar two-fold dilution, 37° C., 20 hours, read-out: MIC): 32 µg/mL (≈ 56.5 µM)
- MIC ([27]; ATCC9885, ATCC 9885, agar two-fold dilution, 37° C., 20 hours, read-out: MIC): 0.13 µg/mL (≈ 0.229 µM)
- MIC ([28]; ATCC8090, ATCC 8090, agar two-fold dilution, 37° C., 20 hours, read-out: MIC): 0.13 µg/mL (≈ 0.229 µM)
- MIC50 (Klebsiella pneumoniae; 10 clinical isolates, broth microdilution test): 0.13 µg/mL (≈ 0.229 µM)
- MIC90 (Klebsiella pneumoniae; 10 clinical isolates, broth microdilution test, read-out: MIC 90%): 0.13 µg/mL (≈ 0.229 µM)
